Consider five compounds from ChEMBL document CHEMBL1909046, “DrugMatrix in vitro pharmacology data”.

The structures appear in SMILES notation.

The target of data set [1] is Tyrosine-protein kinase Fyn (Homo sapiens, UniProt P06241). Kind of data set: biochemical. It is filed as cell-based, Insect cells. Particulars: insect cells.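 Note: enzymatic inhibition of Fyn kinase activity measured with Poly(Glu:Tyr) as the phosphorylation substrate; in other assays of this panel Not Active means under 50% inhibition at 10 µM.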
For data set [2], the target named is T1, C-C chemokine receptor type 4 (Homo sapiens, UniProt P51679). Note: in other assays of this panel Not Active means under 50% inhibition at 10 µM.
T1 sequence (P51679 whole entry): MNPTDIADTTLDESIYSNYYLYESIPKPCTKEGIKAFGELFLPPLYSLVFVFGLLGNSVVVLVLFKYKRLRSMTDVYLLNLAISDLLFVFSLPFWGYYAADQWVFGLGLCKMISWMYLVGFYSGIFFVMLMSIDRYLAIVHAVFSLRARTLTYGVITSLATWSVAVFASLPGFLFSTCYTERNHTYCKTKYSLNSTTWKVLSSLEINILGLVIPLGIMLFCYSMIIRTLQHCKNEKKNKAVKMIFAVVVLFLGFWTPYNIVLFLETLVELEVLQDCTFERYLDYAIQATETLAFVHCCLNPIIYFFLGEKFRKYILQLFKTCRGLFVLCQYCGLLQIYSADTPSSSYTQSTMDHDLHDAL
It is filed as cell membranes, Membrane. Particulars: chem-1.

In data set [3] the target is C-C chemokine receptor type 2 (Homo sapiens, UniProt P41597). It is filed as cell membranes, CHO-K1, Membrane. Particulars: cho-k1. Note: in other assays of this panel Not Active means under 50% inhibition at 10 µM.
A further data set concerns the target Cytochrome P450 2C19 (Homo sapiens, UniProt P33261). Particulars: bti-tn-5b1-4. Note: in other assays of this panel Not Active means under 50% inhibition at 10 µM.
In data set [4] the target is 5-hydroxytryptamine receptor 4 (Cavia porcellus, UniProt O70528). Type of data set: cell membranes, Dunkin-Hartley, Striatum, Membrane. Note: in other assays of this panel Not Active means under 50% inhibition at 10 µM.
Data set [5] can be described thus: DRUGMATRIX: Glutamate, NMDA, Phencyclidine radioligand binding (ligand: [3H] TCP). Type of data set: cell membranes, Rattus norvegicus, Wistar, Cerebral cortex, Membrane. Particulars: Not Active = under 50% inhibition at 10 µM.
The target in data set [6] is Sodium-dependent dopamine transporter (Homo sapiens, UniProt Q01959). Description: DRUGMATRIX: Dopamine Transporter radioligand binding (ligand: [125I] RTI-55). Type of data set: cell membranes, CHO-K1, Membrane. Particulars: cho-k1; Not Active = under 50% inhibition at 10 µM.
Data set [7] in a line: DRUGMATRIX: Sigma2 radioligand binding (ligand: [3H] Ifenprodil). It is filed as cell membranes, Rattus norvegicus, Wistar, Brain, Membrane. Particulars: Not Active = under 50% inhibition at 10 µM.
For data set [8], the target named is T2, Muscarinic acetylcholine receptor M4 (Homo sapiens, UniProt P08173). Note: in other assays of this panel Not Active means under 50% inhibition at 10 µM.
T2 sequence (P08173 whole entry): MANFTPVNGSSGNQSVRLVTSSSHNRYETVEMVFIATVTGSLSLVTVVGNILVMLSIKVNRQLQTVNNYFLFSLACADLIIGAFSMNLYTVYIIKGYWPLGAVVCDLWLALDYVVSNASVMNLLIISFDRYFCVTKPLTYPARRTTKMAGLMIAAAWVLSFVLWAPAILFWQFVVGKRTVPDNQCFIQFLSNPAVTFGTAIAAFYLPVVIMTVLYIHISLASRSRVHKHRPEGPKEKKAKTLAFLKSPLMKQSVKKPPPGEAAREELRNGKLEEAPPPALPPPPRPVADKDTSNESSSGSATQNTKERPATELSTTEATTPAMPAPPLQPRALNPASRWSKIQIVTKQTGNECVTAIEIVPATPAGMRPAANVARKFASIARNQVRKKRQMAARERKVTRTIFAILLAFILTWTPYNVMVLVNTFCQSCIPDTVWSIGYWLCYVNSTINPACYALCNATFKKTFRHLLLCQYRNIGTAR
Type of data set: cell membranes, CHO-K1, Membrane. Particulars: cho-k1.

For the next data set, the target named is T3, D(4) dopamine receptor (Homo sapiens, UniProt P21917).
T3 sequence (P21917 whole entry): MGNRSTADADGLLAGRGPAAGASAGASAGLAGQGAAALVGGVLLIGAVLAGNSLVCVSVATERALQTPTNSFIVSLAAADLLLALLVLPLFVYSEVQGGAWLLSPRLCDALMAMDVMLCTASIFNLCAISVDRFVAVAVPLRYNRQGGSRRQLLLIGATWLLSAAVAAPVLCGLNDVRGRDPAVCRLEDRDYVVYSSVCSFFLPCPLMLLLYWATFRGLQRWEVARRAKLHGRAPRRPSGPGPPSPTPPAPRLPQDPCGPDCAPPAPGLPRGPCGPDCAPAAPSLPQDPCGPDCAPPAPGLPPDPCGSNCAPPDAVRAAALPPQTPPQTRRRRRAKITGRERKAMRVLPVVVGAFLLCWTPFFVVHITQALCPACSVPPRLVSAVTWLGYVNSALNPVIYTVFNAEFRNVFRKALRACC
Kind of data set: DRUGMATRIX: Dopamine D4.2 radioligand binding (ligand: [3H] Spiperone). Particulars: cho-k1; Not Active = under 50% inhibition at 10 µM. Type of data set: cell membranes, CHO-K1, Membrane.

Data set [9] can be described thus: DRUGMATRIX: Purinergic P2X radioligand binding (ligand: [3H] alpha, beta-Methylene-ATP). Particulars: Not Active = under 50% inhibition at 10 µM. Type of data set: cell membranes, Oryctolagus cuniculus, New Zealand albino, Urinary bladder, Membrane.
Another data set concerns the target T4, Leukotriene C4 synthase (Cavia porcellus, UniProt A6XA80).
T4 sequence (A6XA80 whole entry): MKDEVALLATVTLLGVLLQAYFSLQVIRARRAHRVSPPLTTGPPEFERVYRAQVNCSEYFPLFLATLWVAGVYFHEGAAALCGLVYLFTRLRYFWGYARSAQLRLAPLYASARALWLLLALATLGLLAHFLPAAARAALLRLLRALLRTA
Kind of data set: biochemical. Type of data set: tissue-based, Lung.

A short description of data set [10]: DRUGMATRIX: Glutamate, Kainate radioligand binding (ligand: [3H] Kainic acid). It is filed as cell membranes, Rattus norvegicus, Wistar, Brain, Membrane. Particulars: Not Active = under 50% inhibition at 10 µM.
The target of a further data set is T5, Substance-K receptor (Homo sapiens, UniProt P21452). Note: in other assays of this panel Not Active means under 50% inhibition at 10 µM.
T5 sequence (P21452 whole entry): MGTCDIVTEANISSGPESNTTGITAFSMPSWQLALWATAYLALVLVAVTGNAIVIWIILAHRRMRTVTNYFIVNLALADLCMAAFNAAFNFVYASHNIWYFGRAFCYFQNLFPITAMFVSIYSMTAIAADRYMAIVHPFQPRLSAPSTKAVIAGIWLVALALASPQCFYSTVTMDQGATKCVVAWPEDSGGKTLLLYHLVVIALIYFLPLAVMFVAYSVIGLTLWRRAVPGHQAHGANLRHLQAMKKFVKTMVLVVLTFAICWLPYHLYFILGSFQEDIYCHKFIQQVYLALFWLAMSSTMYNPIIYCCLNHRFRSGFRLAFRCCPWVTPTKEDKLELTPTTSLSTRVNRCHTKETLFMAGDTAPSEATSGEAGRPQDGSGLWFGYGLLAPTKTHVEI
It is filed as cell membranes, CHO, Membrane.

Data set [11] is described as follows: DRUGMATRIX: Phosphodiesterase PDE3 enzyme inhibition (substrate: [3H]cAMP + cAMP). Type of data set: tissue-based, Homo sapiens. Particulars: platelet; Not Active = under 50% inhibition at 10 µM.
Data set [12] has as its target Beta-3 adrenergic receptor (Homo sapiens, UniProt P13945). Kind of data set: DRUGMATRIX: Adrenergic beta3 radioligand binding (ligand: [125I] Cyanopindolol). It is filed as cell membranes, HEK293, Membrane. Particulars: hek293; Not Active = under 50% inhibition at 10 µM.
In a further data set the target is Histamine H2 receptor (Homo sapiens, UniProt P25021). Type of data set: cell membranes, CHO-K1, Membrane. Particulars: cho-k1. Note: in other assays of this panel Not Active means under 50% inhibition at 10 µM.
Histamine H2 receptor, sequence (P25021 whole entry): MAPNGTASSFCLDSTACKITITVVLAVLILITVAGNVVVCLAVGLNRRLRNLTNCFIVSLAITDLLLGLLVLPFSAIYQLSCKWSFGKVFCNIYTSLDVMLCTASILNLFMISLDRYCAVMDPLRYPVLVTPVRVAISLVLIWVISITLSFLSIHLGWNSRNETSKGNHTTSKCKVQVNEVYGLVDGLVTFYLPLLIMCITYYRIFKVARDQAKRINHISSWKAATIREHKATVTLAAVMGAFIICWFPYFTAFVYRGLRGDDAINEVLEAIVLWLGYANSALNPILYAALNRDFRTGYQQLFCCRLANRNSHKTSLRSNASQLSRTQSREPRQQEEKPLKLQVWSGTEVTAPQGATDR

5-hydroxytryptamine receptor 4, sequence (O70528 whole entry): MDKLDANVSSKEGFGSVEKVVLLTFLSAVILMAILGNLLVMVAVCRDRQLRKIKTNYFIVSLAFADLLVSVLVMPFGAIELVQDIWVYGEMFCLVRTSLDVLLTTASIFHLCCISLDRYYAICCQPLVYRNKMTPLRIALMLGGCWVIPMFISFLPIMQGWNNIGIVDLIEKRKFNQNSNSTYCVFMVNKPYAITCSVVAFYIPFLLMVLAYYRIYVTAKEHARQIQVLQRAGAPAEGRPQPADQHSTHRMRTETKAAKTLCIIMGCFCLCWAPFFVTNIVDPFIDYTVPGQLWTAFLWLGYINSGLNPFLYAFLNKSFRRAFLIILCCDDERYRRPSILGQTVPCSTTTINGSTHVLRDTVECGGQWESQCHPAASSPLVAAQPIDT
Tyrosine-protein kinase Fyn, sequence (P06241 whole entry): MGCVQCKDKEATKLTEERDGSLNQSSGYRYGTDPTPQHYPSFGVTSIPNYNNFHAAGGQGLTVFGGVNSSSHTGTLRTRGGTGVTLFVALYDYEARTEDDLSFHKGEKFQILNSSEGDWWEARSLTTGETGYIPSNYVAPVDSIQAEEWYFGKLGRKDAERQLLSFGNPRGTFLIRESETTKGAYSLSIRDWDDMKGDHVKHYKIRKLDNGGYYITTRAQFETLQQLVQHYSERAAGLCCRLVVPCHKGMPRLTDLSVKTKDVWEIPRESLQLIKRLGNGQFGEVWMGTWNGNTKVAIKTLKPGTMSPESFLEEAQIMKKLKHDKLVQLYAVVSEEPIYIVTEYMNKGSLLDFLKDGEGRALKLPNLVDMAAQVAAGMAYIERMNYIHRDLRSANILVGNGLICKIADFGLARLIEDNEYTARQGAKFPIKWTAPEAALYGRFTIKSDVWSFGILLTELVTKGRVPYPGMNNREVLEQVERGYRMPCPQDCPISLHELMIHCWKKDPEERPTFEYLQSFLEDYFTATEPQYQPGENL
Cytochrome P450 2C19, sequence (P33261 whole entry): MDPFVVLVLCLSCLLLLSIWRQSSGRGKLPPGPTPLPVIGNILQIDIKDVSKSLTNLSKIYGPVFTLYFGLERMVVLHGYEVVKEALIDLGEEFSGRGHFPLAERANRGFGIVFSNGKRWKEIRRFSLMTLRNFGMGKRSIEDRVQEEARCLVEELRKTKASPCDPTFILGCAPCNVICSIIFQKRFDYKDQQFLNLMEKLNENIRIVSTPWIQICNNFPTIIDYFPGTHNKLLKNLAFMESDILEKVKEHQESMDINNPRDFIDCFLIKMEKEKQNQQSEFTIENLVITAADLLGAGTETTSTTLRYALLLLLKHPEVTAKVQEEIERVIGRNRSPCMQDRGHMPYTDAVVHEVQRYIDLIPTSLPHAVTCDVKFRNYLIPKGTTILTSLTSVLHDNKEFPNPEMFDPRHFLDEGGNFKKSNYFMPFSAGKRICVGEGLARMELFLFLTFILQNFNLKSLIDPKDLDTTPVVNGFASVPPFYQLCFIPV
C-C chemokine receptor type 2, sequence (P41597 whole entry): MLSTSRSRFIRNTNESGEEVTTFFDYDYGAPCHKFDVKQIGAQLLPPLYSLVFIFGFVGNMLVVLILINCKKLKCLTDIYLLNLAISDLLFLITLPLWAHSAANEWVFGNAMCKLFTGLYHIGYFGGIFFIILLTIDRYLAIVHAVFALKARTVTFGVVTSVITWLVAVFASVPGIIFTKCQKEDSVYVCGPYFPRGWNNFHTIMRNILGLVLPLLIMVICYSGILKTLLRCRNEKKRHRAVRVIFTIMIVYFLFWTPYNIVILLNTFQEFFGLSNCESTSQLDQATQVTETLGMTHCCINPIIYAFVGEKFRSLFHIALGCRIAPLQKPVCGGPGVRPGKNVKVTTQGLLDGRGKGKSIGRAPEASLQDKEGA
Sodium-dependent dopamine transporter, sequence (Q01959 whole entry): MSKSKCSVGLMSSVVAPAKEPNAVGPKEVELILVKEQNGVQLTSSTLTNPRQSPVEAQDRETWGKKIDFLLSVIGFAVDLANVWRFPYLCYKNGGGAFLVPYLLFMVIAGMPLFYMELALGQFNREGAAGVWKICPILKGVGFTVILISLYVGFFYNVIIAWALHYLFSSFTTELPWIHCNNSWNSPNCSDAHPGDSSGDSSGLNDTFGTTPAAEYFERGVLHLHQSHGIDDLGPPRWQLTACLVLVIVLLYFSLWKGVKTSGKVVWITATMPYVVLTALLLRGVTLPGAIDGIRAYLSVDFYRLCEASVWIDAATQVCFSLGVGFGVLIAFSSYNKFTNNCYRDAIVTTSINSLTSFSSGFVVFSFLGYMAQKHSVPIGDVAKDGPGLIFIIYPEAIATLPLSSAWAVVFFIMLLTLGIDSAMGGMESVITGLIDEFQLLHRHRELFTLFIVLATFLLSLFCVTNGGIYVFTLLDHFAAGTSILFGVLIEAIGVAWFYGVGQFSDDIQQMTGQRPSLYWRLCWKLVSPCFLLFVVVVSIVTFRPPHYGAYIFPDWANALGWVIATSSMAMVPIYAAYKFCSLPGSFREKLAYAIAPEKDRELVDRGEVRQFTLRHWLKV
Beta-3 adrenergic receptor, sequence (P13945 whole entry): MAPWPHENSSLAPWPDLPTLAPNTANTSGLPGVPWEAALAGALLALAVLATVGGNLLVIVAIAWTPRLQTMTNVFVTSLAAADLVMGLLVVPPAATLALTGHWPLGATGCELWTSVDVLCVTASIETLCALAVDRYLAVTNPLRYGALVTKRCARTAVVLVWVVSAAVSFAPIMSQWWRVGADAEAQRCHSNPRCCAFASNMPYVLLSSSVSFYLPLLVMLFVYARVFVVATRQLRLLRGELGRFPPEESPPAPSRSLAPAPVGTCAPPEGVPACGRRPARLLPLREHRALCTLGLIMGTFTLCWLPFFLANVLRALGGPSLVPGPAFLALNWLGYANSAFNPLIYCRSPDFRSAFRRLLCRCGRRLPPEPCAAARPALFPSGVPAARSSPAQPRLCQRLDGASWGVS

Take `COc1ccc2c(c1)c(CC(=O)OCC(=O)O)c(C)n2C(=O)c1ccc(Cl)cc1` [ACEMETACIN]: the IC50 entry (in data set [1]; in data set [2]; in data set [3]; against Cytochrome P450 2C19; in data set [4]; in data set [5]) was “Not Active” each time. The IC50 entry (in [6]; in [7]; in data set [8]; at D(4) dopamine receptor; in [9]; against Leukotriene C4 synthase) was “Not Active” in each case. Also, the IC50 entry (in data set [10]; on Substance-K receptor (cho); in [11]; in [12]; against Histamine H2 receptor) was “Not Active” in each case. The Ki result (on Cytochrome P450 2C19; in [5]; in data set [7]; in [9]; in [10]; in [11]) was “Not Active” throughout.
Turning to `CCCSc1ccc2nc(NC(=O)OC)[nH]c2c1` [ALBENDAZOLE], the IC50 entry (in [1]; in [2]; in data set [3]; against Cytochrome P450 2C19; in data set [4]; in data set [5]) was “Not Active” throughout. The IC50 result (in data set [6]; in data set [7]; in data set [8]; on D(4) dopamine receptor; in data set [9]; against Leukotriene C4 synthase) was “Not Active” in each case. Moreover, the IC50 entry (in [10]; against Substance-K receptor (cho); in data set [11]; in [12]; on Histamine H2 receptor) was “Not Active” in each case. The Ki result (on Cytochrome P450 2C19; in data set [5]; in data set [7]; in data set [9]; in data set [10]; in [11]) was “Not Active” throughout.
Turning to `Cc1[nH]cnc1CN1CCc2c(c3ccccc3n2C)C1=O` [ALOSETRON], the IC50 entry (in [1]; in data set [2]; in data set [3]; at Cytochrome P450 2C19; in data set [4]; in [5]) was “Not Active” each time. Besides, the IC50 result (in data set [6]; in data set [7]; in [8]; at D(4) dopamine receptor; in data set [9]; on Leukotriene C4 synthase) was “Not Active” each time. The IC50 entry (in [10]; on Substance-K receptor (cho); in data set [11]; in data set [12]; at Histamine H2 receptor) was “Not Active” each time. Besides, the Ki entry (on Cytochrome P450 2C19; in data set [5]; in [7]; in [9]; in data set [10]; in data set [11]) was “Not Active” in each case.
With `O=c1cc(-c2ccccc2)oc2c1ccc1ccccc12` [ALPHA-NAPHTHOFLAVONE], the IC50 result (in data set [1]; in data set [2]; in data set [3]; against Cytochrome P450 2C19; in data set [4]; in data set [5]) was “Not Active” each time. Moreover, the half-maximal inhibitory concentration (IC50) entry (in [6]; in [7]; in data set [8]; at D(4) dopamine receptor; in data set [9]; on Leukotriene C4 synthase) was “Not Active” throughout. Further, the IC50 result was “Not Active” in data set [10]; 5.85 µM at Substance-K receptor (read-out: IC50); “Not Active” in [11]; “Not Active” in data set [12]; “Not Active” on Histamine H2 receptor. In addition, the Ki entry at Cytochrome P450 2C19 is “Not Active”; in data set [5], “Not Active”; in [7], “Not Active”; in data set [9], “Not Active”; in data set [10], “Not Active”; on Substance-K receptor (read-out: Ki), 1.95 µM. Further, the Ki entry in data set [11] was “Not Active”.
With `NCC[C@H](O)C(=O)N[C@@H]1C[C@H](N)[C@@H](O[C@H]2O[C@H](CN)[C@@H](O)[C@H](O)[C@H]2O)[C@H](O)[C@H]1O[C@H]1O[C@H](CO)[C@@H](O)[C@H](N)[C@H]1O` [AMIKACIN], the IC50 entry (in data set [1]; in data set [2]; in [3]; against Cytochrome P450 2C19; in data set [4]; in data set [5]) was “Not Active” throughout. Besides, the IC50 entry (in data set [6]; in data set [7]; in data set [8]; at D(4) dopamine receptor; in data set [9]; against Leukotriene C4 synthase) was “Not Active” throughout. Further, the IC50 result (in data set [10]; against Substance-K receptor (cho); in data set [11]; in data set [12]; at Histamine H2 receptor) was “Not Active” each time. Moreover, the Ki result (on Cytochrome P450 2C19; in [5]; in data set [7]; in [9]; in data set [10]; in data set [11]) was “Not Active” in each case.

What is called IC50 is the midpoint of a concentration-inhibition curve. Usually Ki stands for the equilibrium dissociation constant of an inhibitor or competing ligand from its target.
